Results taken from ChEMBL document CHEMBL1201862, “PubChem BioAssay data set” (2004).
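Cultured in 96-well plates, cells were exposed to test compound for 48 hours across five concentrations. GI50 = concentration required for 50% inhibition of growth.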 Calls of active or inactive are those of the source. Rule as the data show it: active = GI50 up to about 1.1 µM and inactive = higher.

Key:
Assay in all cases: NCI anticancer screen, dose series, 48 h
[1] = tested on: RPMI-8226
[2] = tested on: SF-539
[3] = tested on: SK-MEL-2
[4] = tested on: SK-OV-3
[5] = tested on: NCI-H460
[6] = tested on: OVCAR-3
[7] = tested on: NCI-H23
[8] = tested on: UACC-257
[9] = tested on: SF-268
[10] = tested on: LOX IMVI
[11] = tested on: SN12C
[12] = tested on: COLO 205
[13] = tested on: UACC-62
[14] = tested on: HOP-92
[15] = tested on: TK-10
[16] = tested on: SR

Measured: GI50

Cc1nn(-c2ccccc2)c(-c2ccccc2[N+](=O)[O-])c1CC#N
inactive: [1] 63.2 µM | [2] > 100 µM | [3] > 100 µM | [4] > 100 µM | [5] > 100 µM | [6] 62.1 µM | [7] 87.7 µM | [8] > 100 µM | [9] > 100 µM | [10] > 100 µM | [11] > 100 µM | [12] > 100 µM | [13] 78.5 µM | [14] 27.8 µM | [15] > 100 µM

N#CC(C#N)=C(N)/C(C#N)=C\c1ccnc2ccccc12
inactive: [2] 15.1 µM | [16] 16.4 µM | [5] 39.3 µM | [6] 31.3 µM | [7] 19.9 µM | [8] 24.3 µM | [9] 18.5 µM | [11] 18.8 µM | [12] > 100 µM | [13] 18.9 µM | [14] 23 µM | [15] 35.2 µM

Cc1ccc(NC(=O)c2cccc([N+](=O)[O-])c2O)c(C)c1
inactive: [1] 11.6 µM | [2] 14.5 µM | [16] 22.3 µM | [3] 7.73 µM | [4] 22.9 µM | [5] 26.4 µM | [6] 5.7 µM | [7] 23 µM | [8] 14 µM | [9] 34.8 µM | [10] 11.9 µM | [11] 15.8 µM | [12] 23.9 µM | [13] 4.03 µM

CCc1ccccc1NC(=O)C1=C(C)NC(C)=C(C(=O)Nc2ccccc2CC)C1c1cccc([N+](=O)[O-])c1
inactive: [1] 11.7 µM | [2] 43.9 µM | [3] 19.5 µM | [4] > 100 µM | [5] 27.7 µM | [6] 52 µM | [7] 36.6 µM | [8] 33.2 µM | [9] 43 µM | [10] 87.9 µM | [11] 70.6 µM | [12] 34.7 µM | [14] 13.2 µM | [15] 41.6 µM

C=C(c1ccccc1)c1cc2c(=O)[nH]ccc2n1C
inactive: [1] 24.7 µM | [3] 21.5 µM | [4] 26 µM | [5] 30.1 µM | [6] 24.8 µM | [7] 30.1 µM | [8] 37.1 µM | [9] 33.3 µM | [10] 37.2 µM | [11] 34.2 µM | [12] 15.9 µM | [13] 28.5 µM | [14] 14.2 µM | [15] 55.3 µM

O=C(O)CCSC(=O)Nc1ccc([N+](=O)[O-])cc1
inactive: [1] > 100 µM | [2] > 100 µM | [16] > 100 µM | [3] > 100 µM | [5] > 100 µM | [6] > 100 µM | [7] > 100 µM | [8] > 100 µM | [9] > 100 µM | [10] > 100 µM | [11] > 100 µM | [12] > 100 µM | [15] > 100 µM

O=C(NN1C(=O)C(Cl)C1c1ccccc1Cl)c1ccccc1O (stereo not given)
inactive: [2] > 100 µM | [3] > 100 µM | [4] > 100 µM | [5] > 100 µM | [6] > 100 µM | [8] > 100 µM | [9] 71.1 µM | [10] > 100 µM | [11] > 100 µM | [13] > 100 µM | [15] > 100 µM

CO/N=C(/C(=O)Nc1c[n+](CC(=O)[O-])cs1)c1csc(N)n1
inactive: [1] > 100 µM | [2] > 100 µM | [3] > 100 µM | [4] > 100 µM | [5] > 100 µM | [6] > 100 µM | [7] > 100 µM | [8] > 100 µM | [9] > 100 µM | [10] > 100 µM | [11] > 100 µM | [12] > 100 µM | [13] > 100 µM | [14] > 100 µM | [15] > 100 µM

CC(=O)n1c(=O)c2cc3c(=O)n(-c4cccc(C#N)c4)c(=O)c3cc2c1=O
inactive: [2] > 100 µM | [3] > 100 µM | [4] > 100 µM | [5] > 100 µM | [6] > 100 µM | [7] > 100 µM | [8] > 100 µM | [9] > 100 µM | [10] > 100 µM | [11] > 100 µM | [12] > 100 µM | [13] > 100 µM | [14] 39.2 µM | [15] > 100 µM

CC1CCC2(NC1)OC1CC3[C@@H]4CC=C5C=CCC[C@]5(C)C4CC[C@]3(C)C1C2C (stereo not given in full)
inactive: [1] 20 µM | [2] 19.6 µM | [3] 19 µM | [4] 25.8 µM | [5] 19 µM | [6] 24.9 µM | [7] 32.3 µM | [8] 22.5 µM | [9] 28.6 µM | [10] 17.9 µM | [11] 27.7 µM | [12] 17.3 µM | [13] 21 µM | [14] 19.7 µM | [15] 15.3 µM

COc1cc(-c2nn3c(=O)n(-c4ccc(Cl)cc4)c(=O)nc3s2)cc(OC)c1OC
inactive: [1] > 50 µM | [2] 17 µM | [3] 24.9 µM | [4] > 50 µM | [5] > 100 µM | [6] 54.5 µM | [7] 37.6 µM | [8] > 58.7 µM | [9] > 50 µM | [10] 18.5 µM | [11] > 96.2 µM | [12] > 100 µM | [13] > 50 µM | [14] 15.5 µM | [15] 8.55 µM

Clc1ccc(-c2nnc(-c3nn(-c4ccccc4)c4nc5ccccc5nc34)o2)cc1
inactive: [1] 24.7 µM | [2] > 100 µM | [3] > 100 µM | [4] > 100 µM | [5] > 100 µM | [6] 34.1 µM | [7] 42.4 µM | [8] 67.5 µM | [9] 69.3 µM | [10] > 100 µM | [11] > 100 µM | [12] > 100 µM | [13] 67.8 µM | [15] > 100 µM

Cn1c(O)c(C(=O)Nc2cccs2)c(=O)[nH]c1=S
inactive: [1] 19.5 µM | [2] 16.5 µM | [3] 16.4 µM | [4] 16 µM | [5] 19.4 µM | [6] 19.9 µM | [7] 14.5 µM | [8] 15.4 µM | [9] 18.8 µM | [10] 15.7 µM | [11] 17.7 µM | [12] 16.6 µM | [13] 14.1 µM | [14] 12.6 µM | [15] 31 µM

COc1cc([N+](=O)[O-])ccc1NC(=O)c1cccc([N+](=O)[O-])c1O
inactive: [1] 10.3 µM | [2] 23.1 µM | [16] 17.8 µM | [3] 17.5 µM | [4] 23.1 µM | [5] 27.7 µM | [6] 29.4 µM | [7] 20.4 µM | [8] 17.8 µM | [9] 32.5 µM | [10] 22.2 µM | [11] 14.7 µM | [12] 16 µM | [13] 9.2 µM

CCN(/N=C1\CC2C=CCN(C2)C(=O)Cc2c1[nH]c1ccccc21)S(=O)(=O)c1ccc(C)cc1 (stereo not given)
inactive: [1] 63.1 µM | [2] > 100 µM | [16] 64.4 µM | [3] 88.1 µM | [7] 87.5 µM | [8] 94.2 µM | [10] > 100 µM | [11] 86.7 µM | [12] 68.2 µM | [13] 38.8 µM | [15] > 100 µM

C1=CC(=P(c2ccccc2)(c2ccccc2)c2ccccc2)C=C1
inactive: [1] 3.18 µM | [2] 14.8 µM | [3] 13.3 µM | [4] 18.2 µM | [5] 7.83 µM | [6] 10.7 µM | [7] 11.5 µM | [8] 7.48 µM | [9] 10.3 µM | [10] 6.5 µM | [11] 10.3 µM | [12] 4.13 µM | [13] 6.25 µM | [14] 6.14 µM | [15] 20.7 µM

COc1ccc(C2ON(c3ccccn3)CC=C2C)cc1 (stereo not given)
inactive: [1] 60.1 µM | [2] > 100 µM | [16] 58.9 µM | [3] > 100 µM | [4] > 100 µM | [5] > 100 µM | [6] > 100 µM | [7] 78.3 µM | [8] > 100 µM | [9] > 100 µM | [10] > 100 µM | [11] > 100 µM | [12] > 100 µM | [13] > 100 µM

COc1ccc(-c2cc(=O)c3c(O)cccc3o2)c(OC)c1OC
inactive: [1] > 100 µM | [2] 20.6 µM | [3] 20.2 µM | [4] > 100 µM | [5] 80 µM | [6] > 100 µM | [7] > 100 µM | [8] > 100 µM | [9] > 100 µM | [10] 55.2 µM | [11] 76.9 µM | [12] > 100 µM | [13] > 100 µM | [14] 19.9 µM | [15] 47.1 µM

COc1cc(-c2cc(=O)c3ccccc3o2)ccc1N
inactive: [1] 45.5 µM | [2] 30.8 µM | [3] > 100 µM | [4] > 100 µM | [5] 37.2 µM | [6] 62.8 µM | [7] 33.8 µM | [8] > 100 µM | [9] 26.8 µM | [10] 51.1 µM | [11] 65.8 µM | [12] 69.3 µM | [13] 79.8 µM | [14] 33.8 µM | [15] > 100 µM
